# From ChEMBL document CHEMBL1201862, “PubChem BioAssay data set” (2004)
# Calls of active or inactive are those of the source.
# Legend:
# [1] = biological target: T1, Sphingosine 1-phosphate receptor 4 (Homo sapiens, UniProt O95977); experiment: potency of S1P4 activators – cell-based, fluorescence, synthesized compounds, late-stage follow-up (AID 463107); type: functional
# T1 sequence (O95977 whole entry): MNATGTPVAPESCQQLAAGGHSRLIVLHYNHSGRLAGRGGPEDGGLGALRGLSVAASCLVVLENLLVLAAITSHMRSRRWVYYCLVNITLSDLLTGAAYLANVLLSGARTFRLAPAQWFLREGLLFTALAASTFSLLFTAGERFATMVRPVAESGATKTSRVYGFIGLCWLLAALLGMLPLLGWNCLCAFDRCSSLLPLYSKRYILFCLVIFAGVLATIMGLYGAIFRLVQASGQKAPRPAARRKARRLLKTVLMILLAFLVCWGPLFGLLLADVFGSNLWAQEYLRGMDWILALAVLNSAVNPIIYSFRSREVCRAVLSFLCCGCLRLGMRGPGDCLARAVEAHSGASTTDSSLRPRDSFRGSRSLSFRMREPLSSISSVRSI
# [2] = biological target: T2, Short transient receptor potential channel 4 (Mus musculus, UniProt Q9QUQ5); experiment: potentiation of DAMGO-evoked TRPC4 calcium signal – cell-based, HEK293 TRPC4/mu-opioid, Fluo-4 calcium, EC20 DAMGO, dose response (AID 434941); type: functional
# T2 sequence (Q9QUQ5 whole entry): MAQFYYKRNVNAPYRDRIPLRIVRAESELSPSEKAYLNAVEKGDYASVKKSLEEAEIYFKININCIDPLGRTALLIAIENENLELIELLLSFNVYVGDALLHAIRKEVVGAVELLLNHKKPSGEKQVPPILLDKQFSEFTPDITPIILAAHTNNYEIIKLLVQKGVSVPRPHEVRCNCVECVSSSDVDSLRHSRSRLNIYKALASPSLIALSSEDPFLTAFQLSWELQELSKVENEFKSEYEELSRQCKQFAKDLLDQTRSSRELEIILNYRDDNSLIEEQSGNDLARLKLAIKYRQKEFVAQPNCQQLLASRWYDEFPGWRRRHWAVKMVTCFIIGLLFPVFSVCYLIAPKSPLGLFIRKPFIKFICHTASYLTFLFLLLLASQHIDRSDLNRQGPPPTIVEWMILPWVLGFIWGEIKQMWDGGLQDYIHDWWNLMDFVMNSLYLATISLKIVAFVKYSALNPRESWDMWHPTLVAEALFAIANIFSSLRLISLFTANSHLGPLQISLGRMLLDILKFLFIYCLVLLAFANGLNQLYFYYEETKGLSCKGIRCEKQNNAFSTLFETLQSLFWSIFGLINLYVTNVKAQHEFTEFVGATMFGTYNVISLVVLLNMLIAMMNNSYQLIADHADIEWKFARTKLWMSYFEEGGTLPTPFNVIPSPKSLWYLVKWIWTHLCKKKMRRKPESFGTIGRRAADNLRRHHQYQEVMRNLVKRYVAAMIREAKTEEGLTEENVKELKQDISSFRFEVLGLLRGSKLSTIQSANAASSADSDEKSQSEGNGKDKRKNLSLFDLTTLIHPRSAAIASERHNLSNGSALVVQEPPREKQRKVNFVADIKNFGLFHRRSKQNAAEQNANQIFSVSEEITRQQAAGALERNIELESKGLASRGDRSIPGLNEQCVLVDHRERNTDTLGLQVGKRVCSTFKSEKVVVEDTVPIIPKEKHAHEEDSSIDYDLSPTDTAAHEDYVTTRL
# [3] = biological target: T3, Dual specificity protein phosphatase 3 (Homo sapiens, UniProt P51452); experiment: SAR VHR1 absorbance Assay for In Vitro dose response studies. [Related pubchem assays (depositor defined):AID1654, AID1661, AID1878, AID1992, AID2004]
# [4] = biological target: T3, Dual specificity protein phosphatase 3; experiment: SAR VHR1 Fluorescent Assay for In Vitro dose response studies. [Related pubchem assays (depositor defined):AID1654, AID1661, AID1878, AID1992, AID2004, AID2070, AID2085]; type: functional
# [5] = biological target: T4, Tyrosine-protein phosphatase non-receptor type 7 (Homo sapiens, UniProt P35236); experiment: redox-active compounds inhibiting HePTP phosphatase – biochemical, fluorescence, mechanism study (AID 2068); type: functional
# T4 sequence (P35236 whole entry): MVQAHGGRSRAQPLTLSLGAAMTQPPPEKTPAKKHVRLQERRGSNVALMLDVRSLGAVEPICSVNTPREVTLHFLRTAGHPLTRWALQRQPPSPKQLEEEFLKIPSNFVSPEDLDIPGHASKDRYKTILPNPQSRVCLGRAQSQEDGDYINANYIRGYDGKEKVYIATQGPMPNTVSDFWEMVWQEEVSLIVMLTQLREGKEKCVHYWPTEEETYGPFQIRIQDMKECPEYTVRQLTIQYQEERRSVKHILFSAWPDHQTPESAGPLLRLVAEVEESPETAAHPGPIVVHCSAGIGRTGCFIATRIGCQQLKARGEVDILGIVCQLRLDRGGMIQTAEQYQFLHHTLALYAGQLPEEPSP
# [6] = biological target: T5, Dual specificity protein phosphatase 6 (Rattus norvegicus, UniProt Q64346); type: functional;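 further: confirmatory in vitro dose-response testing of MKP-3 inhibition; recombinant His-tagged MKP-3 made in E. coli BL21 with OMFP substrate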
# T5 sequence (Q64346 whole entry): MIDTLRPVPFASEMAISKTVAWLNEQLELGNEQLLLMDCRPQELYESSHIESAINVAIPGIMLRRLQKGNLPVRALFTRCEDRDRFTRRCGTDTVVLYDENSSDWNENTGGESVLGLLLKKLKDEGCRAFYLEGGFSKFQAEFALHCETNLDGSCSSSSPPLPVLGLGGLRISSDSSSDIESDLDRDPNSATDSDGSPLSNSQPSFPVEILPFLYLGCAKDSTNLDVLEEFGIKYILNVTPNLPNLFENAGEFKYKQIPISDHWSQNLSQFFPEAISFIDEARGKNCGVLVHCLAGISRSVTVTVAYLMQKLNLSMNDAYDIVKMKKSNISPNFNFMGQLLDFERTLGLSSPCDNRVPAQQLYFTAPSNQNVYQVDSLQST
# Vero [7] = experiment: Vero 76 cell viability after compound exposure – Vero 76 cells, synthesized analogs, cytotoxicity control for West Nile virus antiviral project, SAR follow-up (AID 2414); type: functional; conditions: Chlorocebus sabaeus
# Vero [8] = experiment: Vero cell viability after compound exposure – synthesized analogs, set II, cytotoxicity control for West Nile virus antiviral project, SAR follow-up (AID 2402); type: functional; conditions: Chlorocebus sabaeus
# Vero [9] = experiment: host cell viability loss, Vero E6 – synthesized analogs, cytotoxicity control for West Nile virus antiviral project, SAR follow-up (AID 2244); type: functional; conditions: Chlorocebus sabaeus
# [10] = A Cell Based Assay for the Identification of Probe candidate Compounds with Anti- Venezuelan Equine Encephalitis virus. [Related pubchem assays: 2409, 2419, 1621, 2238, 2405, 2024, 2065, 2402, 2414, 1635, 1650, 2244 ]; type: functional
# Vero [11] = experiment: antiviral protection of cells from WNV – synthesized analogs, SAR follow-up (AID 2238); type: functional, cell-based; conditions: Chlorocebus sabaeus
# [12] = biological target: T6, Ubiquitin-conjugating enzyme E2 N (Homo sapiens, UniProt P61088); type: functional;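 further: Dose-response confirmation in a TR-FRET assay detecting UBC13-driven polyubiquitin chain formation, inhibition measured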
# T6 sequence (P61088 whole entry): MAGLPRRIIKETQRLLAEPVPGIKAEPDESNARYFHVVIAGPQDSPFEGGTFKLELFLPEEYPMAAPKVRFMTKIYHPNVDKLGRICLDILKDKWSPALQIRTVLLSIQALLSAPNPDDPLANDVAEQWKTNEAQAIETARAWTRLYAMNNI
# T3 sequence (P51452 whole entry): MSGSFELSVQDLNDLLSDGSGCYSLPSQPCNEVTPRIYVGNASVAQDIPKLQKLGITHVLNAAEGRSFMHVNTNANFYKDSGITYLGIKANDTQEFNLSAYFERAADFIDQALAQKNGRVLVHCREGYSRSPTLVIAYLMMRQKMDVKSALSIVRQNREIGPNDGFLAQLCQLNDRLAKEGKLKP
structure (smiles),measurement,setting,value
Cc1ccc(OCCOc2ccccc2)c([N+](=O)[O-])n1,EC50,[1],> 50 µM (inactive)
CC1Cc2ccccc2N1C(=O)CSc1nc2c(c(=O)n(C)c(=O)n2C)n1Cc1ccc(F)cc1 (configuration not stated),EC50,[2],1.33 µM (active)
S=C(c1cn(CCOc2ccccc2)c2ccccc12)N1CCCCC1,IC50,[3],> 100 µM (inactive)
same,IC50,[4],> 100 µM (inactive)
same,IC50,[5],31.7 µM (active)
same,IC50,[6],> 100 µM (inactive)
Cc1cccc2c1-c1sc(C(=O)NCCCN3CCC(C)CC3)cc1CO2,CC50,Vero [7],20 µM (active)
same,CC50,Vero [8],10.1 µM (active)
same,CC50,Vero [9],10 µM (active)
same,IC50,[10],8.52 µM (active)
same,IC50,Vero [11],> 40 µM (active)
same,IC50,[12],> 20 µM (inactive)
